Target: T1, POLγA:A467T (Homo sapiens, UniProt P54098, A467T)
T1 sequence (P54098 1-1239 A467T): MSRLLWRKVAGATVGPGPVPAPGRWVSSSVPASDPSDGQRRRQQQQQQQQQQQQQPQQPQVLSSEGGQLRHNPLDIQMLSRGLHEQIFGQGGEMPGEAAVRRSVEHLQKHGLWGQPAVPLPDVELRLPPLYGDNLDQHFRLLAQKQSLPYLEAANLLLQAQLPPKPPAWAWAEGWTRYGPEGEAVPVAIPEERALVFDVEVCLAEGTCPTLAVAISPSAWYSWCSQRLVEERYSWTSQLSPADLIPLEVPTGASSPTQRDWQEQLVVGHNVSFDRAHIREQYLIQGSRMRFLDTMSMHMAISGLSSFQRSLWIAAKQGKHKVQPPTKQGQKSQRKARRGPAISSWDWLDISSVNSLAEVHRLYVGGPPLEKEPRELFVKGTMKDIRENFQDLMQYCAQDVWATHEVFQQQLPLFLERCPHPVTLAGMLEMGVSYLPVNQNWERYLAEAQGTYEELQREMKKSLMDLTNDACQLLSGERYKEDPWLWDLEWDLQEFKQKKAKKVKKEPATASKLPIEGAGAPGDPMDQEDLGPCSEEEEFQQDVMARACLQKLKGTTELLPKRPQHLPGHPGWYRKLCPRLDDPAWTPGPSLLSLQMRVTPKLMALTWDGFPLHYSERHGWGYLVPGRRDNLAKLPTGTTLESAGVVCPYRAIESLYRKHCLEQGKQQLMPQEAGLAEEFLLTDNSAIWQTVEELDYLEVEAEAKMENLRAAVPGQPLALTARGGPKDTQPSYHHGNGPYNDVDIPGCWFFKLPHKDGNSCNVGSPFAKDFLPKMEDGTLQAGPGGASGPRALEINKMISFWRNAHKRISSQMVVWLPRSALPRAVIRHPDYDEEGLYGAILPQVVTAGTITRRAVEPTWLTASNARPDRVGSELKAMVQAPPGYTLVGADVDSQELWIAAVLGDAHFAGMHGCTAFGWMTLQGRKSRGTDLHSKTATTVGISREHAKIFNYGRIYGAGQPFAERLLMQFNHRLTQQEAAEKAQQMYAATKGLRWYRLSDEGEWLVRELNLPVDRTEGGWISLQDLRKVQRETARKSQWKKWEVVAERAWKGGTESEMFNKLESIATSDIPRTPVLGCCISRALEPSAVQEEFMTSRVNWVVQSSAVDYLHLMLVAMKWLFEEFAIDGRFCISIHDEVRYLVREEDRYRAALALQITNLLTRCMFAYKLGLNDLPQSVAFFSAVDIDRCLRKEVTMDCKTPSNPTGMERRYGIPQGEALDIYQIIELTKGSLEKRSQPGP
T1 sequence (Q9UHN1 1-485 partner): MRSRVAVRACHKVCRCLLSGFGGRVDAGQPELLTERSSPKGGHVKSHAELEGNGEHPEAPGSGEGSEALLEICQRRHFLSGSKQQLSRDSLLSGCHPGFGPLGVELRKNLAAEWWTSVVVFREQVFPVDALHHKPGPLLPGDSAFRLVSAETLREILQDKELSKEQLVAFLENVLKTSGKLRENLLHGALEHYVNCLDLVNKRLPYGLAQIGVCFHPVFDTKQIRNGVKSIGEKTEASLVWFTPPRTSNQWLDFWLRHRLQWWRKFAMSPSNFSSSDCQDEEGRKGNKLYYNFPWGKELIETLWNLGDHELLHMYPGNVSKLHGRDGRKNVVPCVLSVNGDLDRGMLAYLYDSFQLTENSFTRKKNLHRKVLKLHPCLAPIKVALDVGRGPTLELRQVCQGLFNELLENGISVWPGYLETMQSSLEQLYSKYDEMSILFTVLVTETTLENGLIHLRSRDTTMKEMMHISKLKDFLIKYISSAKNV
Test: DNA polymerization assay, POLγA:A467T mutant
Assay type: biochemical
Settings: stimulation of polymerase activity, primed M13mp18 ssDNA, 37° C. 2 hours; read-out: A467T AC50
Method: DNA Polymerization Assay to Monitor Effects on Human Wildtype POLγ and Four Disease-Causing Mutant Variants of Human POLγ.
The ability of small molecules to stimulate the polymerase activity of POLγ was analyzed in a quantitative fluorescence SYBR Green I assay with fluorescence intensity (FI) readout.
In the presence of dNTPs, wild type human POLγ and mutant derivatives thereof were incubated with single-stranded, circular M13mp18 ssDNA hybridized to a short DNA oligonucleotide that functions as a primer for initiation of DNA synthesis. POLγ and mutant derivatives thereof will extend the primer and use the M13mp18 molecule as a template to synthesize long stretches of double-stranded DNA. SYBR Green I, which is a double-stranded DNA-binding dye, was used to quantify formation of double-stranded DNA in the reaction. When bound to double-stranded DNA, SYBR Green I fluorescence increases by up to 100-fold.
The assay was performed in the 384-well plate format. Upon addition of compounds, changes in double-stranded DNA synthesis activity can be monitored by following effects on fluorescent intensity.
The reactions also contained the accessory POLγB subunit, and the human mitochondrial single-stranded DNA binding protein (mtSSB).
The DNA template mixture used in the assay contained 0.5 nM primed M13 mp18 ssDNA, 400 nM mtSSB, 0.1 mM Tris-HCl (pH 8.0), 0.1 mM dNTP, 10 mM MgCl2, 0.1 mg/mL BSA, 1 mM TCEP solution, and 0.02% Triton X-100. The DNA template mixture for the wild type protein contained either 100 μM dNTP, 1 μM dNTP, or 0.1 μM dNTP, designated in Table 2 as 100 μM, 1 μM, and 0.1 μM, respectfully.
Microplates with compounds (0.1 μL in each well) to be tested in the assay were prepared from 10 mM compound stocks in 100% DMSO, and equal amounts of DMSO without any compound were added to positive and negative control wells.
The protein mixture was dispensed (5 μL into each well) into compound plates and incubated at 37° C. for 15 minutes. After incubation, 5 μL of the DNA template mixture was dispensed into each well. The plates were then incubated at 37° C. for 2 hours.
During incubation, a combined stop buffer and detection reagent solution was prepared. The buffer contained 25 mM EDTA (pH 8.0), 0.02% Triton X-100, and SYBR Green I [Invitrogen] diluted 10,000× (for fluorescent readout). EDTA will stop the enzymatic reaction by chelating magnesium ions.

AC50	SMILES
28 µM	Cc1cc(S(=O)(=O)Nc2cccc(C(=O)N(C)C(C)CO)c2)c(C)cc1Cl (single isomer, unassigned) [Example 14, 3-((4-chloro-2,5-dimethylphenyl)sulfonamido)-N-(1-hydroxypropan-2-yl)-N-methylbenzamide]
60 µM	Cc1ccc(C)c(S(=O)(=O)Nc2cccc(C(=O)N3CCCCC3C#N)c2)c1 (stereo not drawn) [Example 2, N-(3-(2-cyanopiperidine-1-carbonyl)phenyl)-2,5-dimethylbenzenesulfonamide]
48 µM	Cc1ccc(C)c(S(=O)(=O)Nc2cccc(C(=O)N3CCCCC3)c2)c1 [Example 3, 2,5-dimethyl-N-(3-(piperidine-1-carbonyl)phenyl)benzene sulfonamide]
52 µM	Cc1ccc(C)c(S(=O)(=O)Nc2cccc(C(=O)NCC3CC3)c2)c1 [Example 4, N-(cyclopropylmethyl)-3-((2,5-dimethylphenyl)sulfonamido)benzamide]
33 µM	Cc1ccc(C)c(S(=O)(=O)Nc2cccc(C(=O)N3CCCC[C@H]3C)c2)c1 [Example 5, (R)-2,5-dimethyl-N-(3-(2-methylpiperidine-1-carbonyl)phenyl)benzenesulfonamide]
95 µM	Cc1ccc(C)c(S(=O)(=O)Nc2cccc(C(=O)N3CCCC[C@@H]3C)c2)c1 [Example 6, (S)-2,5-dimethyl-N-(3-(2-methylpiperidine-1-carbonyl)phenyl)benzenesulfonamide]
37 µM	Cc1ccc(C)c(S(=O)(=O)Nc2cccc(C(=O)N3CCOCC3C#N)c2)c1 (stereo not drawn) [Example 7, N-(3-(3-cyanomorpholine-4-carbonyl)phenyl)-2,5-dimethylbenzenesulfonamide]
39 µM	Cc1ccc(C)c(S(=O)(=O)Nc2cccc(C(=O)N[C@@H](C)C3CC3)c2)c1 [Example 8, (S)-N-(1-cyclopropylethyl)-3-((2,5-dimethylphenyl)sulfonamido)benzamide]
18 µM	Cc1cc(S(=O)(=O)Nc2cccc(C(=O)N3CCCC[C@H]3C)c2)c(C)cc1Cl [Example 9, (R)-4-chloro-2,5-dimethyl-N-(3-(2-methylpiperidine-1-carbonyl)phenyl)benzenesulfonamide]
12 µM	Cc1cc(S(=O)(=O)Nc2cccc(C(=O)N3CCC[C@H]3C)c2)c(C)cc1Cl [Example 10, (R)-4-chloro-2,5-dimethyl-N-(3-(2-methylpyrrolidine-1-carbonyl)phenyl)benzenesulfonamide]
49 µM	Cc1cc(S(=O)(=O)Nc2cccc(C(=O)NCc3ccccc3)c2)c(C)cc1Cl [Example 11, N-benzyl-3-((4-chloro-2,5-dimethylphenyl)sulfonamido)benzamide]
45 µM	Cc1cc(S(=O)(=O)Nc2cccc(C(=O)N(C)C)c2)c(C)cc1Cl [Example 12, 3-((4-chloro-2,5-dimethylphenyl)sulfonamido)-N,N-dimethylbenzamide]
33 µM	Cc1cc(S(=O)(=O)Nc2cc(F)cc(C(=O)N3CCC[C@H]3C)c2)c(C)cc1Cl [Example 13, (R)-4-chloro-N-(3-fluoro-5-(2-methylpyrrolidine-1-carbonyl)phenyl)-2,5-dimethylbenzenesulfonamide]
5 µM	Cc1cc(S(=O)(=O)Nc2cccc(-c3nccs3)c2)c(C)cc1Cl [Example 16, 4-chloro-2,5-dimethyl-N-(3-(thiazol-2-yl)phenyl)benzenesulfonamide]
6 µM	Cc1cc(S(=O)(=O)Nc2cccc(-c3ncco3)c2)c(C)cc1Cl [Example 17, 4-chloro-2,5-dimethyl-N-(3-(oxazol-2-yl)phenyl)benzenesulfonamide]
17 µM	Cc1cc(S(=O)(=O)Nc2cccc(-c3ccn(C)n3)c2)c(C)cc1Cl [Example 18, 4-chloro-2,5-dimethyl-N-(3-(1-methyl-1H-pyrazol-3-yl)phenyl)benzenesulfonamide]
11 µM	Cc1cc(S(=O)(=O)Nc2cccc(-c3nccn3C)c2)c(C)cc1Cl [Example 19, 4-chloro-2,5-dimethyl-N-(3-(1-methyl-1H-imidazol-2-yl)phenyl)benzenesulfonamide]
> 100 µM	Cc1cc(S(=O)(=O)Nc2cccc(-c3ncc(C(N)=O)s3)c2)c(C)cc1Cl [Example 92, 2-(3-((4-chloro-2,5-dimethylphenyl)sulfonamido)phenyl) thiazole-5-carboxamide]
> 100 µM	CNC(=O)c1cnc(-c2cccc(NS(=O)(=O)c3cc(C)c(Cl)cc3C)c2)s1 [Example 93, 2-(3-((4-chloro-2,5-dimethylphenyl)sulfonamido)phenyl)-N-methylthiazole-5-carboxamide]
> 100 µM	Cc1cc(S(=O)(=O)Nc2cccc(-c3ncc(C(=O)N(C)C)s3)c2)c(C)cc1Cl [Example 94, 2-(3-((4-chloro-2,5-dimethylphenyl)sulfonamido)phenyl)-N,N-dimethylthiazole-5-carboxamide]
> 100 µM	Cc1cc(S(=O)(=O)N[C@H]2CCCN(C(=O)[C@H]3CCCN3C)C2)c(C)cc1Cl [Example 95, 4-chloro-2,5-dimethyl-N-((S)-1-(methyl-D-prolyl)piperidin-3-yl)benzenesulfonamide]
24 µM	Cc1cc(S(=O)(=O)Nc2cccc(-c3ncc(C#N)s3)c2)c(C)cc1Cl [Example 96, 4-chloro-N-(3-(5-cyanothiazol-2-yl)phenyl)-2,5-dimethylbenzenesulfonamide]
> 100 µM	Cc1cc(S(=O)(=O)Nc2cccc(-c3ncc(-c4nnn[nH]4)s3)c2)c(C)cc1Cl [Example 97, N-(3-(5-(1H-tetrazol-5-yl)thiazol-2-yl)phenyl)-4-chloro-2,5-dimethylbenzenesulfonamide]
> 100 µM	Cc1cnc(-c2ccc(C)c(NS(=O)(=O)c3cc(C)c(Cl)cc3C)c2)s1 [Example 98, 4-chloro-2,5-dimethyl-N-(2-methyl-5-(5-methylthiazol-2-yl)phenyl)benzenesulfonamide]

Source: US20260138961A1, “MODULATORS OF MITOCHONDRIAL DNA REPLICATION” (Pretzel Therapeutics, Inc., priority 2022, published 2026)
